The values that follow come from patent US20120202877A1 (priority 2009, published 2012).

Assay [1] addresses influenza A virus N2 sialidase [A/Paris/908/97 (H3N2)] (Influenza A virus, UniProt Q9EA36). It is filed as biochemical.
A further assay relates to A/Paris/908/97 (H3N2). Nature of the assay: microbe, parasite or virus in culture. It is filed as cell-based, influenza virus. As to conditions: for EC50: Influenza A virus, H3N2, 72 h, read-out: EC50, 50% reduction of the average plaque diameter.
Assay [2] concerns A/Paris/0497/2007 (H1N1, H274). Nature of the assay: microbe, parasite or virus in culture. It counts as cell-based, influenza virus. As to conditions: for EC50: Influenza A virus, H1N1, 72 h, read-out: EC50, 50% reduction of the average plaque diameter.
The target in assay [3] is influenza A virus N1 sialidase [A/HongKong/156/97 (H5N1)] wild type (Influenza A virus, UniProt Q9W7Y7). In words: biochemical.

What is called Ki is the dissociation constant of the complex between target and ligand, obtained from inhibition or displacement. High values mean weaker binding, low ones tighter binding. As usually defined, the EC50 is the midpoint of the concentration-response curve.

For the molecule `CC(=O)N[C@H]1[C@H]([C@H](O)[C@H](O)CO)OC(C(=O)O)=C[C@@H]1O` [Neu5Ac2en, reference compound], the inhibition constant (Ki) in assay [1] was 1.24 ± 0.23 µM; in assay [3], 0.97 ± 0.15 µM. In addition, the half-maximal effective concentration (EC50) (in the assay on A/Paris/908/97 (H3N2); in assay [2]) was 20 µM throughout.

In the case of `C=CCC1=C(C(=O)O)O[C@@H]([C@H](O)[C@H](O)CO)[C@H](NC(C)=O)[C@H]1O` [Compound 7, 5-Acetamido-2,6-anhydro-3,5-dideoxy-3-C-(prop-2′-enyl)-D-glycero-D-galacto-non-2-en-onic acid], the EC50 is greater than 5000 µM with A/Paris/908/97 (H3N2) and 1800 µM in assay [2].

Consider `CC(=O)NC1C(O)C(CC=Cc2ccc(C)cc2)=C(C(=O)O)OC1C(O)C(O)CO` (stereo not shown) [Compound 9d], for which, in the assay on A/Paris/908/97 (H3N2), the “change in plaque size” value is listed as “little or no visible difference in plaque size” and the concentration giving a half-maximal response (EC50) was greater than 1000 µM. In assay [2], the “change in plaque size” value is reported as “significant decrease in plaque size” and the EC50 is 80 µM.
